Measured values: patent US20100104566A1, “ANTITUMOR COMBINATION COMPRISING A MORPHOLINYL ANTHRACYCLINE AND AN ANTIBODY” (NERVIANO MEDICAL SCIENCES S.R.L., priority 2007, published 2010)

Tested on: Human prostate carcinoma DU145 cells
Experiment: In vivo antitumor efficacy of nemorubicin in combination with bevacizumab (tumor growth delay)
Set-up: species or system Balb Nu/Nu, male mice (athymic mice)
Details: DU145 s.c. in athymic mice; for Time to reach 1 g: advanced tumors, bevacizumab 20 mg/kg i.p. day 9, 13, 17, 21, 25, 29, nemorubicin 0.065 mg/kg i.v. day 9, 16, 23; for T-C: delay vs control to reach 1 g, bevacizumab 20 mg/kg i.p., nemorubicin 0.065 mg/kg i.v. q7dx3
Experimental: Materials and Methods: Balb Nu/Nu, male mice (athymic mice from Harlan, Italy) were maintained in cages with paper filter covers, food and bedding sterilized and water acidified. Human prostate carcinoma DU145 cells (from American Type Culture Collection) were implanted subcutaneously in athymic mice (2.5×10^6/cells mice). […] Drug treatments were performed on advanced tumors (when the tumors were palpable). Nemorubicin and bevacizumab were prepared immediately before use ad administered to mice in a volume of 10 ml/kg. Nemorubicin was administered as hydrochloride salt intravenously at a dose of 0.065 mg/kg and treatments were repeated weekly for 3 weeks. Bevacizumab was administered intraperitoneally at a dose of 20 mg/kg on the days 9, 13, 17, 21, 25 and 29 from the day of cell injection. When both compounds were administered on the same day, bevacizumab was administered intraperitoneally immediately before the intravenous injection of nemorubicin. Tumor growth and net body weight were evaluated every 3 days. Tumor growth was assessed by caliper. The two diameters were recorded, and the tumor weight was calculated according to the following formula: length (mm)×width^2 (mm)/2. The effect of the antitumor treatment was determined as the delay in the onset of an exponential growth of tumors [see for reference, Anti Cancer Drugs 7: 437-60, 1996]. This delay (T-C value) was defined as the difference of the time (in days) required for the treatment group (T) and the control group (C) tumors to reach a predetermined size (e.g. 1 g). Toxicity was evaluated on the basis of the body weight reduction.

Compound	Time to reach 1 g [days]	T-C [days]
COc1cccc2c1C(=O)c1c(O)c3c(c(O)c1C2=O)C[C@@](O)(C(=O)CO)C[C@@H]3O[C@H]1C[C@H](N2CCO[C@H](OC)C2)[C@H](O)[C@H](C)O1 [Nemorubicin, (8S-cis, 2″S)-7,8,9,10-tetrahydro-6,8,11-trihydroxy-8-(hydroxyacetyl)-1-methoxy-10-{[2,3,6-trideoxy-3-(2-methoxy-4-morpholinyl)-α-L-lyxo-hexopyranosyl]oxy}-5,12-naphthacenedione]	18.95	4.68
Bevacizumab: monoclonal antibody directed against the vascular endothelial growth factor (VEGF)	21.31	7.04
